Where a name gives a salt, the structure may show the parent alone.
Tested on: chronic fingernail biting
Test: Treatment of a subject with chronic fingernail biting (Example 1)
Format: in vivo, human
Method: A subject presented with chronic fingernail biting. The subject was treated with 60 mg of tomoxetine hydrochloride, twice daily for 13 consecutive days. […] The patient's chronic fingernail biting behavior resumed upon termination of treatment with tomoxetine hydrochloride.

CNCC[C@@H](Oc1ccccc1C)c1ccccc1 [tomoxetine hydrochloride, (R)-(−)-N-methyl-3-(2-methylphenoxy)-3-phenylpropylamine]
chronic fingernail biting at final assessment (60 mg twice daily for 13 consecutive days, healthy appearing fingernails except for one finger): significant improvement
chronic fingernail biting behavior upon termination of treatment (after 60 mg twice daily for 13 consecutive days was stopped): resumed

From patent US20040034106A1, “Treatment of anxiety disorders” (priority 2003, published 2004)
